We go through 39 compounds from patent publication US9930890B2 (priority 2010, dated 2018).

For series [1] the following is noted: for logp [a]: pH 2.7; for logp [b]: pH 7.8.
In a further series the test system is Plasmopara viticola. The series is described as follows: Plasmopara test (grapevine)/protective. The settings on record: grapevine young plants, protective spray, active ingredient concentration 10 ppm, evaluation 6 days after inoculation; 0% = control, 100% = no infection. In kind it is in vivo. Here is the method:
Plasmopara Test (Grapevine)/Protective
To produce an appropriate active ingredient formulation, 1 part by weight of active ingredient is mixed with the specified amounts of solvent and emulsifier, and the concentrate is diluted with water to the desired concentration.
To test for protective efficacy, young plants are sprayed with the active ingredient formulation at the stated application rate. After the spray coating has dried on, the plants are inoculated with an aqueous spore suspension of Plasmopara viticola and then remain in an incubation cabin at approx. 20° C. and 100% relative air humidity for 1 day. Subsequently, the plants are placed in a greenhouse at approx. 21° C. and approx. 90% air humidity for 4 days. The plants are then moistened and placed in an incubation cabin for 1 day.
Evaluation follows 6 days after the inoculation. 0% means an efficacy which corresponds to that of the control, whereas an efficacy of 100% means that no infection is observed.
In this test, the following inventive compounds show, at an active ingredient concentration of 10 ppm, an efficacy of 70% or more: […]

For a further series, the system named is Phytophthora infestans. In kind it is in vivo. The settings on record: tomato plants, protective spray, active ingredient concentration 100 ppm, evaluation 7 days after inoculation; 0% = control, 100% = no infection.

Consider `CON=C(C)c1cccc(C2CC(c3csc(C4CCN(C(=O)Cn5nc(C(F)(F)F)cc5C)CC4)n3)=NO2)c1` (mixture of isomers) [I-3], for which the “logp [a]” value in series [1] is 3.7[a]. Besides, the figures for the Eff. % in the series on Plasmopara viticola and in the series with Phytophthora infestans were 97% and 100%, respectively.
Take `CCON=C(C)c1cccc(C2CC(c3csc(C4CCN(C(=O)Cn5nc(C(F)F)cc5C(F)F)CC4)n3)=NO2)c1` (mixture of isomers) [I-5]: the Eff. % in the series with Plasmopara viticola is on record as 87%; in the series with Phytophthora infestans, 100%.
Turning to `CC(=NO)c1cccc(C2CC(c3csc(C4CCN(C(=O)Cn5nc(C(F)(F)F)cc5C)CC4)n3)=NO2)c1` (mixture of isomers) [I-7], the “logp [a]” value in series [1] is 2.8[a]. Further, the Eff. % in the series on Plasmopara viticola and in the series on Phytophthora infestans was 100% throughout.
As for `Cc1cc(C(F)(F)F)nn1CC(=O)N1CCC(c2nc(C3=NOC(c4cccc(C=NO)c4)C3)cs2)CC1` (mixture of isomers) [I-10], the Eff. % came out at 92% with Plasmopara viticola and 100% in the series with Phytophthora infestans.
The corresponding values for `Cc1ccc(Cl)cc1NC(=O)N1CCC(c2nc(C3=NOC(c4cccc(C=NO)c4)C3)cs2)CC1` (mixture of isomers) [I-14] are 100% and 100%.
`CON=Cc1cccc(C2CC(c3csc(C4CCN(C(=O)Cn5nc(C(F)(F)F)cc5C)CC4)n3)=NO2)c1` (mixture of isomers) [I-15]: the Eff. % in the series on Plasmopara viticola turned out to be 81%; in the series with Phytophthora infestans, 100%.
`CON=Cc1cccc(C2CC(c3csc(C4CCN(C(=O)Cn5nc(C(F)F)cc5C(F)F)CC4)n3)=NO2)c1` (mixture of isomers) [I-16] registered an Eff. % in the series on Plasmopara viticola of 94%.
As for `CC(=NO)c1cccc(C2CC(c3csc(C4CCN(C(=O)Cn5nc(C(F)F)cc5C(F)F)CC4)n3)=NO2)c1` (mixture of isomers) [I-18], the Eff. % in the series with Plasmopara viticola and in the series with Phytophthora infestans was 100% each time.
In the case of `CON=Cc1cccc(C2CC(c3csc(C4CCN(C(=O)Nc5cc(Cl)ccc5C)CC4)n3)=NO2)c1` (mixture of isomers) [I-19], the Eff. % with Plasmopara viticola and in the series with Phytophthora infestans was 100% each time.
With `CON=C(C)c1cccc(C2CC(c3csc(C4CCN(C(=O)Cn5nc(C(F)F)cc5C(F)F)CC4)n3)=NO2)c1` (mixture of isomers) [I-21], the Eff. % with Plasmopara viticola and in the series with Phytophthora infestans was 100% throughout.
Consider `O=C(Cn1nc(C(F)F)cc1C(F)F)N1CCC(c2nc(C3=NOC(c4cccc(C=NO)c4)C3)cs2)CC1` (mixture of isomers) [I-22], for which the Eff. % in the series on Plasmopara viticola and in the series with Phytophthora infestans was 100% in each case.
For the compound `CON=C(C)c1cccc(C2CC(c3csc(C4CCN(C(=O)Nc5cc(Cl)ccc5C)CC4)n3)=NO2)c1` (mixture of isomers) [I-23], the Eff. % in the series on Plasmopara viticola worked out at 98%; in the series on Phytophthora infestans, 100%.
For `CCON=Cc1ccccc1C1CC(c2csc(C3CCN(C(=O)Cn4nc(C(F)F)cc4C(F)F)CC3)n2)=NO1` (mixture of isomers) [I-27], the figures for the Eff. % in the series with Plasmopara viticola and with Phytophthora infestans were 99% and 100%, respectively.
`CON=C(C)c1ccccc1C1CC(c2csc(C3CCN(C(=O)Cn4nc(C(F)(F)F)cc4C)CC3)n2)=NO1` (mixture of isomers) [I-31]: the Eff. % in the series on Plasmopara viticola stood at 97%; with Phytophthora infestans, 100%.
In the same order, the values of `CON=C(C)c1ccccc1C1CC(c2csc(C3CCN(C(=O)Cn4nc(C(F)F)cc4C(F)F)CC3)n2)=NO1` (mixture of isomers) [I-32] are 85% and 100%.
For `O=C(Cn1nc(C(F)F)cc1C(F)F)N1CCC(c2nc(C3=NOC(c4ccccc4C=NO)C3)cs2)CC1` (mixture of isomers) [I-35], the figures for the Eff. % in the series on Plasmopara viticola and in the series on Phytophthora infestans were 100% and 95%, respectively.
The corresponding values for `Cc1ccc(Cl)cc1NC(=O)N1CCC(c2nc(C3=NOC(c4ccccc4C=NO)C3)cs2)CC1` (mixture of isomers) [I-36] are 100% and 100%.
For the compound `CC(=O)Nc1ccc(C2CC(c3csc(C4CCN(C(=O)Cn5nc(C(F)F)cc5C(F)F)CC4)n3)=NO2)cc1` (racemic) [I-25], the “logp [a]” value in series [1] is 2.2[a],. In the series on Plasmopara viticola, this compound yielded an Eff. % of 97%.
For `CS(=O)(=O)Oc1cc(Cl)ccc1C1CC(c2csc(C3CCN(C(=O)Cn4nc(C(F)F)cc4C(F)F)CC3)n2)=NO1` (centres unmarked) [I-70], in series [1], the “logp [a]” value was 3.27[a], and the “logp [b]” value was 3.27[b]. In the series on Phytophthora infestans, the Eff. % turned out to be 97%.
As for `N#CCOc1cc(Cl)ccc1C1CC(c2csc(C3CCN(C(=O)Cn4nc(C(F)F)cc4C(F)F)CC3)n2)=NO1` (centres unmarked) [I-71], in series [1], the “logp [a]” value was 3.23[a], and the “logp [b]” value was 3.22[b]. The compound also came in with an Eff. % with Phytophthora infestans of 100%.
Take `N#CCOc1cccc(Cl)c1C1CC(c2csc(C3CCN(C(=O)Cn4nc(C(F)F)cc4C(F)F)CC3)n2)=NO1` (centres unmarked) [I-75]: in series [1], the “logp [a]” value is 3.19[a], and the “logp [b]” value was 3.11[b]. The compound also came in with an Eff. % in the series with Plasmopara viticola of 100%.
As to `C=CCOCc1ccccc1C1CC(c2csc(C3CCN(C(=O)Cn4nc(C(F)(F)F)cc4C)CC3)n2)=NO1` (centres unmarked) [I-93], the “logp [a]” value in series [1] is 3.84[a]. The same compound yielded an Eff. % with Phytophthora infestans of 95%.
For the compound `C=CCOCc1ccccc1C1CC(c2csc(C3CCN(C(=O)Cn4nc(C(F)F)cc4C(F)F)CC3)n2)=NO1` (centres unmarked) [I-94], the “logp [a]” value in series [1] is 3.63[a]. Also, in the series with Phytophthora infestans, the Eff. % was 100%.
With `Cc1cc(C(F)(F)F)nn1CC(=O)N1CCC(c2nc(C3=NOC(c4cccc(OCC#N)c4)C3)cs2)CC1` (centres unmarked) [I-95], in series [1], the “logp [a]” value is 3.06[a], and the “logp [b]” value was 2.97[b]. For the same compound, the Eff. % with Phytophthora infestans is reported as 100%.
In the same order, the values of `Cc1cc(C(F)(F)F)nn1CC(=O)N1CCC(c2nc(C3=NOC(c4ccc(OS(C)(=O)=O)cc4)C3)cs2)CC1` (centres unmarked) [I-96] are 2.9[a],, 2.81[b] and 95%.
Turning to `CCS(=O)(=O)Oc1ccc(C2CC(c3csc(C4CCN(C(=O)Cn5nc(C(F)(F)F)cc5C)CC4)n3)=NO2)cc1` (centres unmarked) [I-97], in series [1], the “logp [a]” value was 3.14[a], and the “logp [b]” value was 3.05[b]. Further, the Eff. % in the series on Phytophthora infestans came out at 95%.
In the case of `Cc1cc(C(F)(F)F)nn1CC(=O)N1CCC(c2nc(C3=NOC(c4ccc(OS(=O)(=O)C5CC5)cc4)C3)cs2)CC1` (centres unmarked) [I-98], in series [1], the “logp [a]” value is 3.22[a], and the “logp [b]” value was 3.13[b]. In the series on Phytophthora infestans, this compound displayed an Eff. % of 95%.
In the same order, the values of `CCS(=O)(=O)Oc1cccc(C2CC(c3csc(C4CCN(C(=O)Cn5nc(C(F)(F)F)cc5C)CC4)n3)=NO2)c1` (centres unmarked) [I-99] are 3.18[a],, 3.08[b] and 100%.
As to `COCCSCc1ccccc1C1CC(c2csc(C3CCN(C(=O)Cn4nc(C(F)F)cc4C(F)F)CC3)n2)=NO1` (centres unmarked) [I-100], the “logp [a]” value in series [1] is 3.5[a]. Besides, the Eff. % in the series on Phytophthora infestans was determined as 100%.
As for `Cc1cc(C(F)(F)F)nn1CC(=O)N1CCC(c2nc(C3=NOC(c4cccc(OS(=O)(=O)C5CC5)c4)C3)cs2)CC1` (centres unmarked) [I-101], in series [1], the “logp [a]” value was 3.25[a], and the “logp [b]” value was 3.12[b]. For the same compound, in the series with Phytophthora infestans, the Eff. % stood at 100%.
In the same order, the values of `C=CC(=O)Oc1ccccc1C1CC(c2csc(C3CCN(C(=O)Cn4nc(C(F)(F)F)cc4C)CC3)n2)=NO1` (centres unmarked) [I-104] are 3.38[a],, 3.3[b] and 97%.
For the compound `O=C(Cn1nc(C(F)F)cc1C(F)F)N1CCC(c2nc(C3=NOC(c4ccccc4OC(=O)C4(Cl)CC4)C3)cs2)CC1` (centres unmarked) [I-107], in series [1], the “logp [a]” value is 3.66[a], and the “logp [b]” value was 3.57[b]. Further, the Eff. % in the series with Phytophthora infestans amounted to 100%.
Regarding `Cc1cc(C(F)(F)F)nn1CC(=O)N1CCC(c2nc(C3=NOC(c4ccccc4NC=O)C3)cs2)CC1` (centres unmarked) [I-109], in series [1], the “logp [a]” value is 2.49[a], and the “logp [b]” value is 2.39[b]. The compound further came in with an Eff. % with Phytophthora infestans of 100%.
Take `N#CCOc1cccc(C2CC(c3csc(C4CCN(C(=O)Cn5nc(C(F)F)cc5C(F)F)CC4)n3)=NO2)c1` (centres unmarked) [I-110]: in series [1], the “logp [a]” value is 2.95[a], and the “logp [b]” value is 2.88[b]. The Eff. % with Phytophthora infestans amounted to 100%.
In the same order, the values of `Cc1cc(C(F)(F)F)nn1CC(=O)N1CCC(c2nc(C3=NOC(c4cccc(F)c4OCC#N)C3)cs2)CC1` (centres unmarked) [I-111] are 3.22[a],, 3.13[b] and 98%.
As to `O=C(O)c1ccccc1C1CC(c2csc(C3CCN(C(=O)Cn4nc(C(F)F)cc4C(F)F)CC3)n2)=NO1` (centres unmarked) [I-134], in series [1], the “logp [a]” value is 2.63[a]. The Eff. % in the series on Phytophthora infestans came to 93%.
In the case of `CCNC(=O)Oc1ccccc1C1CC(c2csc(C3CCN(C(=O)Cn4nc(C(F)F)cc4C(F)F)CC3)n2)=NO1` (centres unmarked) [I-136], in series [1], the “logp [a]” value is 2.84[a], and the “logp [b]” value was 2.81[b]. This compound returned an Eff. % in the series with Phytophthora infestans of 93%.
The corresponding values for `O=C(Cn1nc(C(F)F)cc1C(F)F)N1CCC(c2nc(C3=NOC(c4cccc(OCC#Cc5cccc6ccccc56)c4)C3)cs2)CC1` (centres unmarked) [I-137] are 4.6[a],, 4.71[b] and 100%.
On to `C=CCOCc1ccccc1C1CC(c2csc(C3CCN(C(=O)Cn4nc(C(F)F)cc4C(F)F)CC3)n2)=NO1` (centres unmarked) [I-139], for which the “logp [a]” value in series [1] is 4.11[a]. Besides, in the series with Phytophthora infestans, the Eff. % came out at 80%.
